Columns and labels:
Sclerotiana sclerotiorum = assay: Antifungal susceptibility disk test, fungicide disk plus apyrase inhibitor in plate; type: cell-based; details: inhibitor 65 μM, 30° C., 7 days; for inhibitory effect on the growth of Sclerotiana sclerotiorum compared to copper octanoate alone: combined with copper octanoate (285 mM) disk, FIG. 5A; for inhibitory effect on growth of Sclerotiana sclerotiorum compared to myclobutanil alone: combined with myclobutanil (53.6 mM) disk, FIG. 5B; for inhibitory effect on the growth of Sclerotiana sclerotiorum compared to propiconazole alone: combined with propiconazole (418 mM) disk, FIG. 5C
Procedure: (§1) The equivalent volume of dimethylsulphoxide (DMSO) was added as a control. The studies were repeated two times with similar results. Error bars indicate standard deviations (n=5). The significances of the potency of fungicides are indicated: *** (Student's t-test, P<0.001); **(Student's t-test, P<0.01) or *(Student's t-test, P<0.05). The plant pathogenic fungal strains Botrytis cinerea, Colletotrichum graminicola, Fusarium oxysporum, Sclerotiana sclerotiorum and Verticillium dahliae were obtained from the Institute for Plant Genomics & Biotechnology, Texas A & M University, USA Potato dextrose agar (PDA, Sigma-Aldrich) was routinely used for the growth of different pathogenic fungal strain. Ectophosphatase inhibitors NGXT191 (AI.1), AI.10, NGXT1913 (AI.13), and AI. 15 were used dal this study. The fungicides copper octanoate (C16H30CuO4), myclobutanil (C15H17ClN4) and propiconazole (C15H17Cl2N3O2) were used. The concentrations of these compounds used were copper octanoate (285 mM), myclobutanil (53.6 mM) and propiconazole (418 mM). Standard antifungal susceptibility disk tests were performed to determine any potentiating effect of ectophosphatase inhibitors on the growth of pathogenic fungus. The pathogenic fungus wild-type strains were plated on PDA medium with paper-disks containing, fungicides at the center of the plate. […] Plates were incubated at 30° C. for 7-days (C. graminicola and S. sclerotiorum) or 12-days (B. cinerea, F. oxysporum and V. dahliae), depending on the growth rate of the fungi. Plates were photographed, and the zone of fungal growth inhibition was measured by using IMAGE J™ software (NIH, USA). All the tests were performed with 5 replicates. The studies were performed two times. Results were analyzed for significance using Student T-tests.

[1] = tested on: Fusarium oxysporum f.sp Cubense; assay: as above; type: cell-based; details: inhibitor 65 μM, 30° C., 12 days; for inhibitory effect on the growth of F. oxysporum compared to copper octanoate alone: combined with copper octanoate (285 mM) disk, FIG. 4A
Procedure: as §1, with “Copper Octanoate, 4B. Propiconazole, and 4C. Myclobutanil against the pathogenic fungi Fusarium oxysporum. […] The equivalent” for “The equivalent”

CCCCCCCSC(=O)c1cc2ccccc2oc1=O [AI.10, S-heptyl 2-oxo-2H-chromene-3-carbothioate]
significantly greater inhibitory effect: inhibitory effect on the growth of Sclerotiana sclerotiorum compared to copper octanoate alone (Sclerotiana sclerotiorum) | inhibitory effect on growth of Sclerotiana sclerotiorum compared to myclobutanil alone (Sclerotiana sclerotiorum) | inhibitory effect on the growth of Sclerotiana sclerotiorum compared to propiconazole alone (Sclerotiana sclerotiorum) | inhibitory effect on the growth of F. oxysporum compared to myclobutanil alone ([1]; combined with myclobutanil (53.6 mM) disk, FIG. 4B) | inhibitory effect on the growth of F. oxysporum compared to propiconazole alone ([1]; combined with propiconazole (418 mM) disk, FIG. 4C)

C/C(=N\NC(=O)c1cccc(C)c1)c1ccc2ccccc2c1 [AI.15, (E)-3-methyl-N′-(1-(naphthalen-2-yl)ethylidene)benzohydrazide]
significantly greater inhibitory effect: inhibitory effect on the growth of Sclerotiana sclerotiorum compared to copper octanoate alone (Sclerotiana sclerotiorum) | inhibitory effect on growth of Sclerotiana sclerotiorum compared to myclobutanil alone (Sclerotiana sclerotiorum) | inhibitory effect on the growth of Sclerotiana sclerotiorum compared to propiconazole alone (Sclerotiana sclerotiorum)

Cc1cccc(NS(=O)(=O)c2ccc(-c3ccccc3)cc2)c1 [AI.1, N-(m-tolyl)-[1,1′-biphenyl]-4-sulfonamide]
significantly greater inhibitory effect: inhibitory effect on the growth of Sclerotiana sclerotiorum compared to copper octanoate alone (Sclerotiana sclerotiorum) | inhibitory effect on growth of Sclerotiana sclerotiorum compared to myclobutanil alone (Sclerotiana sclerotiorum) | inhibitory effect on the growth of Sclerotiana sclerotiorum compared to propiconazole alone (Sclerotiana sclerotiorum) | inhibitory effect on the growth of F. oxysporum compared to copper octanoate alone [1]

O=C(Nc1cccc([N+](=O)[O-])c1)c1cccc(S(=O)(=O)Nc2ccc(Br)cc2)c1 [AI.13, 3-(N-(4-bromophenyl)sulfamoyl)-N-(3-nitrophenyl)benzamide]
significantly greater inhibitory effect: inhibitory effect on the growth of Sclerotiana sclerotiorum compared to copper octanoate alone (Sclerotiana sclerotiorum) | inhibitory effect on growth of Sclerotiana sclerotiorum compared to myclobutanil alone (Sclerotiana sclerotiorum) | inhibitory effect on the growth of Sclerotiana sclerotiorum compared to propiconazole alone (Sclerotiana sclerotiorum) | inhibitory effect on the growth of F. oxysporum compared to copper octanoate alone [1]
